Values quoted from earlier work, collected in patent publication US6703022B2, “Composition and method useful for treating colic” (Lev Laboratories, Inc., priority 1999, dated 2004).

Test system: mice
Conditions: at certain doses

**Q.** With `C=CCc1ccc(OC)cc1` [Estragole, 1-allyl-4-methoxybenzene] as the molecule, how does the “mutagenic and carcinogenic effects” value read?
**A.** The value was “mutagenic and carcinogenic effects”.
